The text below walks through data of patent publication US20260001928A1 (CORTERIA PHARMACEUTICALS, priority 2022, published 2026).

*1 amine or outer side, *2 acyl side, *3 side chain or, on linkers, in order; H or OH if unused. Where a SMILES comes first, the peptide text is derived from it. Side-chain parts run from the residue outwards. [ ]: non-standard residue; d: D form. The star is where a group is joined. C16 diacid = O=C(O)CCCCCCCCCCCCCCC(=O)*; γGlu = O=C(O)[C@H](CCC(=O)[*:2])N[*:1]; NMeV = CN[C@H](C(=O)O)C(C)C; Api = NC1(C(=O)O)CCNCC1; Hexanoyl = CCCCCC(=O)*; Aib = CC(C)(N)C(=O)O

One assay addresses T1, human CRF2a receptor (Homo sapiens, UniProt Q13324).
T1 construct: expressed in transfected cells; host or cells: TeloHEAC cells
T1 sequence (Q13324 1-411): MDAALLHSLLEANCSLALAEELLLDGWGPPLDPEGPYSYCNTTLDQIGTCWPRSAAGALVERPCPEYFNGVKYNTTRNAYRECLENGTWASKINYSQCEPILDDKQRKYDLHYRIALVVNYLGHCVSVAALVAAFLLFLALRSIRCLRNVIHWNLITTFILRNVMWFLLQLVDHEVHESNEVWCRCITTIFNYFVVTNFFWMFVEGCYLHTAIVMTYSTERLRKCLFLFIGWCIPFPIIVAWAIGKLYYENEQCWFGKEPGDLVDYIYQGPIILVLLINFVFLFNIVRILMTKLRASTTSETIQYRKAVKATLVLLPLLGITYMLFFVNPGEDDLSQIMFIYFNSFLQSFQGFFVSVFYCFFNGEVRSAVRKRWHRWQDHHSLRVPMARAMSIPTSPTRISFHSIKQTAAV
As to the kind of experiment: Activity at human CRF2a receptor, cAMP functional assay in TeloHEAC cells. Type of assay: cell-based. To be noted: TeloHEAC cells stably expressing human CRF2a receptor, relative to urocortin 2 (100 nM = 100%). In outline:
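TeloHEAC cells stably expressing human CRF2a (10000 cells/well, suspended in HBSS/20 mM HEPES with 2 mM IBMX) were exposed to compounds for 30 min at 37 °C. cAMP was read as the 665/620 nm fluorescence ratio after 1 h at room temperature. EC50 was derived relative to 100 nM urocortin 2, set as 100%.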

The next assay has as its target T2, CFR1R receptor (Homo sapiens, UniProt P34998).
T2 construct: host or cells: CHO-K1 (clone 2)
T2 sequence (P34998 24-415): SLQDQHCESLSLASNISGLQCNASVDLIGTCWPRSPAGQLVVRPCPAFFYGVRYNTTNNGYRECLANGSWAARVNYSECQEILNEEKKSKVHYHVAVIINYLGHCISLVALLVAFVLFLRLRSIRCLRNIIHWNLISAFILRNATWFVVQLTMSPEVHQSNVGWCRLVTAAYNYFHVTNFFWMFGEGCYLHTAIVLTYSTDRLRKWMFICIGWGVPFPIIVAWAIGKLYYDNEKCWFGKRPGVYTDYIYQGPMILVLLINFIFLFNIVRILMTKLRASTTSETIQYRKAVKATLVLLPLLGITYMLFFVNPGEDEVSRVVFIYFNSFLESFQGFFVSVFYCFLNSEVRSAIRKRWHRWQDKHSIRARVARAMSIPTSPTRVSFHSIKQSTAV
As to the kind of experiment: Activity at anti-target CFR1R receptor, cAMP assay in CRF1R-overexpression CHO-K1 cells. The class given is cell-based. To be noted: 100% = Sauvagine at 100 nM; for EC50: cAMP. The procedure, abridged:
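Clone 2; cryopreserved stocks (10% DMSO); 4000 cells/well final; 100% activation = Sauvagine 100 nM; otherwise as TeloHAEC protocol.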
(Cyclic AMP is a second messenger, typically raised through Gs and lowered through Gi signalling.)

`CCCCCC(=O)N[C@H](C(=O)N[C@@H](CC(C)C)C(=O)N[C@@H](CO)C(=O)N[C@@H](CC(C)C)C(=O)N[C@@H](CC(=O)O)C(=O)N[C@@H](C(=O)N1CCC[C@H]1C(=O)N[C@H](C(=O)N[C@@H](CCCCN)C(=O)N[C@@H](CC(C)C)C(=O)N[C@@H](CCCCNC(=O)CC[C@H](NC(=O)CCCCCCCCCCCCCCC(=O)O)C(=O)O)C(=O)N[C@@H](CCCCN)C(=O)N[C@H](C(=O)N[C@@H](CC(C)C)C(=O)N[C@@H](CC(C)C)C(=O)N[C@@H](CCC(=O)O)C(=O)N[C@@H](CCC(N)=O)C(=O)N[C@@H](CCC(=O)O)C(=O)N[C@@H](CCCCN)C(=O)N[C@@H](CCC(N)=O)C(=O)N[C@@H](CCCCN)C(=O)N[C@@H](CCCCN)C(=O)N[C@@H](CCC(N)=O)C(=O)N[C@@H](CCCNC(=N)N)C(=O)N[C@@H](CCC(=O)O)C(=O)N[C@@H](CCC(N)=O)C(=O)N[C@@H](C)C(=O)N[C@@H](CCC(=O)O)C(=O)N[C@H](C(=O)N[C@@H](CC(N)=O)C(=O)NC1(C(=O)N[C@@H](CCC(N)=O)C(=O)N[C@H](C(=O)N[C@@H](CC(C)C)C(=O)N[C@@H](C)C(=O)N[C@@H](CCC(N)=O)C(=O)N[C@H](C(N)=O)C(C)C)[C@@H](C)CC)CCNCC1)[C@@H](C)O)[C@@H](C)CC)[C@@H](C)CC)C(C)C)C(C)C` [compound 157] (Hexanoyl-VLSLD[dV]PIKLK([γGlu-C16 diacid])KILLEQEKQKKQREQAETN[Api]QILAQV-NH2) had an EC50 at human CRF2a receptor of 0.32 nM. On CFR1R receptor, the “Emax (% I)” value was 30 % I and the EC50 is over 250 nM.

The compound `CC[C@H](C)[C@H](NC(=O)[C@H](CCC(N)=O)NC(=O)C(C)(C)NC(=O)[C@H](CC(N)=O)NC(=O)[C@@H](NC(=O)[C@H](CCC(=O)O)NC(=O)[C@H](C)NC(=O)[C@H](CCC(N)=O)NC(=O)[C@H](CCC(=O)O)NC(=O)[C@H](CCCNC(=N)N)NC(=O)[C@H](CCC(N)=O)NC(=O)[C@H](CCCCN)NC(=O)[C@H](CCCCN)NC(=O)[C@H](CCC(N)=O)NC(=O)[C@H](CCCCN)NC(=O)[C@H](CCC(=O)O)NC(=O)[C@H](CCC(N)=O)NC(=O)[C@H](CCC(=O)O)NC(=O)[C@H](CC(C)C)NC(=O)[C@H](CC(C)C)NC(=O)[C@@H](NC(=O)[C@H](CCCCN)NC(=O)[C@H](CCCCNC(=O)CC[C@H](NC(=O)CCCCCCCCCCCCCCC(=O)O)C(=O)O)NC(=O)[C@H](CC(C)C)NC(=O)[C@H](CCCCN)NC(=O)[C@@H](NC(=O)[C@@H]1CCCN1C(=O)[C@H](NC(=O)[C@H](CC(=O)O)NC(=O)[C@H](CC(C)C)NC(=O)[C@H](CO)NC(=O)[C@H](CC(C)C)NC(=O)[C@@H](NC)C(C)C)C(C)C)[C@@H](C)CC)[C@@H](C)CC)[C@@H](C)O)C(=O)N[C@@H](CC(C)C)C(=O)N[C@@H](C)C(=O)N[C@@H](CCC(N)=O)C(=O)N[C@H](C(N)=O)C(C)C` [compound 159] (H-[NMeV]LSLD[dV]PIKLK([γGlu-C16 diacid])KILLEQEKQKKQREQAETN[Aib]QILAQV-NH2) had an EC50 at human CRF2a receptor of 2.97 nM. Also, at CFR1R receptor, the “Emax (% I)” value was 4 % I and the EC50 is over 250 nM.

In turn, `CC[C@H](C)[C@H](NC(=O)[C@H](CCC(N)=O)NC(=O)C1(NC(=O)[C@H](CC(N)=O)NC(=O)[C@@H](NC(=O)[C@H](CCC(=O)O)NC(=O)[C@H](C)NC(=O)[C@H](CCC(N)=O)NC(=O)[C@H](CCC(=O)O)NC(=O)[C@H](CCCNC(=N)N)NC(=O)[C@H](CCC(N)=O)NC(=O)[C@H](CCCCN)NC(=O)[C@H](CCCCN)NC(=O)[C@H](CCC(N)=O)NC(=O)[C@H](CCCCN)NC(=O)[C@H](CCC(=O)O)NC(=O)[C@H](CCC(N)=O)NC(=O)[C@H](CCC(=O)O)NC(=O)[C@H](CC(C)C)NC(=O)[C@H](CC(C)C)NC(=O)[C@@H](NC(=O)[C@H](CCCCN)NC(=O)[C@H](CCCCNC(=O)CC[C@H](NC(=O)CCCCCCCCCCCCCCC(=O)O)C(=O)O)NC(=O)[C@H](CC(C)C)NC(=O)[C@H](CCCCN)NC(=O)[C@@H](NC(=O)[C@@H]2CCCN2C(=O)[C@H](NC(=O)[C@H](CC(=O)O)NC(=O)[C@H](CC(C)C)NC(=O)[C@H](CO)NC(=O)[C@H](CC(C)C)NC(=O)[C@@H](NC)C(C)C)C(C)C)[C@@H](C)CC)[C@@H](C)CC)[C@@H](C)O)CCNCC1)C(=O)N[C@@H](CC(C)C)C(=O)N[C@@H](C)C(=O)N[C@@H](CCC(N)=O)C(=O)N[C@H](C(N)=O)C(C)C` [compound 160] (H-[NMeV]LSLD[dV]PIKLK([γGlu-C16 diacid])KILLEQEKQKKQREQAETN[Api]QILAQV-NH2) gave an EC50 on human CRF2a receptor of 2.08 nM. In addition, at CFR1R receptor, the “Emax (% I)” value came to 2 % I and the EC50 is over 250 nM.

Compound `CC[C@H](C)[C@H](NC(C)=O)C(=O)N[C@H](C(=O)N[C@@H](CC(C)C)C(=O)N[C@@H](CO)C(=O)N[C@@H](CC(C)C)C(=O)N[C@@H](CC(=O)O)C(=O)N[C@@H](C(=O)N1CCC[C@H]1C(=O)N[C@H](C(=O)N[C@@H](CCCCN)C(=O)N[C@@H](CC(C)C)C(=O)N[C@@H](CCCCNC(=O)CC[C@H](NC(=O)CCCCCCCCCCCCCCC(=O)O)C(=O)O)C(=O)N[C@@H](CCCCN)C(=O)N[C@H](C(=O)N[C@@H](CC(C)C)C(=O)N[C@@H](CC(C)C)C(=O)N[C@@H](CCC(=O)O)C(=O)N[C@@H](CCC(N)=O)C(=O)N[C@@H](CCC(=O)O)C(=O)N[C@@H](CCCCN)C(=O)N[C@@H](CCC(N)=O)C(=O)N[C@@H](CCCCN)C(=O)NC(C)(C)C(=O)N[C@@H](CCC(N)=O)C(=O)N[C@@H](CCCNC(=N)N)C(=O)N[C@@H](CCC(=O)O)C(=O)N[C@@H](CCC(N)=O)C(=O)N[C@@H](C)C(=O)N[C@@H](CCC(=O)O)C(=O)N[C@H](C(=O)N[C@@H](CC(N)=O)C(=O)NC(C)(C)C(=O)N[C@@H](CCC(N)=O)C(=O)N[C@H](C(=O)N[C@@H](CC(C)C)C(=O)N[C@@H](C)C(=O)N[C@@H](CCC(N)=O)C(=O)N[C@H](C(N)=O)C(C)C)[C@@H](C)CC)[C@@H](C)O)[C@@H](C)CC)[C@@H](C)CC)C(C)C)C(C)C` [compound 162] (Ac-IVLSLD[dV]PIKLK([γGlu-C16 diacid])KILLEQEKQK[Aib]QREQAETN[Aib]QILAQV-NH2) had an EC50 on human CRF2a receptor of 0.49 nM. Besides, on CFR1R receptor, the “Emax (% I)” value was found to be 0 % I and the EC50 was over 250 nM.

On human CRF2a receptor, `CC[C@H](C)[C@H](NC(C)=O)C(=O)N[C@H](C(=O)N[C@@H](CC(C)C)C(=O)N[C@@H](CO)C(=O)N[C@@H](CC(C)C)C(=O)N[C@@H](CC(=O)O)C(=O)N[C@@H](C(=O)N1CCC[C@H]1C(=O)N[C@H](C(=O)N[C@@H](C)C(=O)N[C@@H](CC(C)C)C(=O)N[C@@H](CCCCNC(=O)CC[C@H](NC(=O)CCCCCCCCCCCCCCC(=O)O)C(=O)O)C(=O)N[C@@H](CCCCN)C(=O)N[C@H](C(=O)N[C@@H](CC(C)C)C(=O)N[C@@H](CC(C)C)C(=O)N[C@@H](CCC(=O)O)C(=O)N[C@@H](CCC(N)=O)C(=O)N[C@@H](CCC(=O)O)C(=O)N[C@@H](CCCCN)C(=O)N[C@@H](CCC(N)=O)C(=O)N[C@@H](CCCCN)C(=O)N[C@@H](CCCCN)C(=O)N[C@@H](CCC(N)=O)C(=O)N[C@@H](CCCNC(=N)N)C(=O)N[C@@H](CCC(=O)O)C(=O)N[C@@H](CCC(N)=O)C(=O)N[C@@H](C)C(=O)N[C@@H](CCC(=O)O)C(=O)N[C@H](C(=O)N[C@@H](CC(N)=O)C(=O)NC(C)(C)C(=O)N[C@@H](CCC(N)=O)C(=O)N[C@H](C(=O)N[C@@H](CC(C)C)C(=O)N[C@@H](C)C(=O)N[C@@H](CCC(N)=O)C(=O)N[C@H](C(N)=O)C(C)C)[C@@H](C)CC)[C@@H](C)O)[C@@H](C)CC)[C@@H](C)CC)C(C)C)C(C)C` [compound 163] (Ac-IVLSLD[dV]PIALK([γGlu-C16 diacid])KILLEQEKQKKQREQAETN[Aib]QILAQV-NH2) returned a concentration for a half-maximal effect (EC50) of 0.3 nM. Further, at CFR1R receptor, the “Emax (% I)” value is recorded as 53 % I.

Usually EC50 stands for the concentration needed to bring the measured effect to its halfway point. The low end stands for an effect from little substance, the high end for a need for much substance.
